Reference: PMC10928576, “Cpne7 deficiency induces cellular senescence and premature aging of dental pulp” (Aging Cell, 2023)

Experiments:
hDPCs [1] = assay: Senescence β-galactosidase (SA-β gal) staining of H2O2-treated hDPCs; type: cell-based, human; details: hDPCs, 1 mM H2O2, 30 min
Protocol: The hDPCs were obtained from the Seoul National University Dental Hospital, and the experimental protocol was accepted by the Institutional Review Board of the Seoul National University (S‐D20140007). Informed consent was obtained from patients. Human DPCs were isolated and used in an in vitro experiment as described previously (Jung et al., [2011]). Human DPCs were cultured in minimum essential medium α (Gibco BRL, 12571063) supplemented with 10% heat‐inactivated fetal bovine serum (FBS; Gibco BRL, 16000044) and antibiotic‐antimycotic (Gibco BRL, 15240062) at 37°C in an atmosphere with 5% CO2. The cells were then treated with recombinant CPNE7 protein (rCPNE7, 100 ng/mL; Origene, TP306428) or CPNE7‐derived peptide (CPNE7‐DP, 10 μg/mL). After oxidative stress‐induced DNA damage using Hydrogen Peroxide Solution (H2O2; Merck, H1009) rCPNE7 was treated after replacement with a new culture medium (α‐MEM).
Human DPCs were fixated with Fixative Solution (Cell Signaling Technology, #9860) at room temperature for 15 min. Rinsed twice with PBS, the cells were then stained with β‐Galactosidase Staining Solution (Cell Signaling Technology, #9860) at 37°C overnight in a dry incubator (no CO2). Cells were observed using light microscopy (Primovert, Zeiss, Germany) (n = 3, each group).

hDPCs [2] = assay: Comet assay; type: cell-based, human; details: 1 mM H2O2
Protocol: Human DPCs were combined with Comet Agarose (Abcam, ab238544) at 1/10 ratio (v/v), mixed by pipetting, and immediately transferred onto the top of the Comer Agarose Base Layer Slide (Abcam, ab238544). Set horizontally, the slides were incubated at 4°C in the dark for 15 min, and placed in a small basin/container containing pre‐chilled Lysis Buffer (Abcam, ab238544). They were immersed in the buffer for 1 h at 4°C in the dark. After 1 h, aspiration of the Lysis Buffer from the container was done and replaced with a pre‐chilled Alkaline Solution (Abcam, ab238544), followed by electrophoresis chamber filled with the Alkaline Electrophoresis Solution. Voltage was applied to the chamber for 30 min at 1 volt/cm. The slides were then rinsed with pre‐chilled DI H2O and replaced with cold 70% Ethanol for 5 min. The slide was removed from the 70% Ethanol and allowed to air dry. Once the slide was completely dry, staining with Vista Green DNA Dye (Abcam, ab238544) was done at room temperature for 15 min. Cells were visualized using confocal microscopy (LSM980, Zeiss, Germany) (n = 3, each group).

hDPCs [3] = details: 30 min or 1 h after H2O2 100 μM, 500 μM or 1 mM
hDPCs [4] = assay: γ-H2AX immunofluorescence in hDPCs; type: cell-based, human; details: 1 mM H2O2, vs control
Protocol: Human DPCs and tissue sections were treated with phosphate‐buffered saline (PBS) and 0.5% Triton X‐100 for permeabilization. After washing and blocking, cells and tissue samples were incubated overnight at 4°C with γ‐H2AX (1:100, Cell Signaling Technology, #9718) and CPNE7 (1:100) in blocking buffer (PBS and 2% bovine serum albumin). Subsequently, FITC‐conjugated anti‐rabbit secondary antibody (1:500) or Cy3‐conjugated anti‐rabbit (1:500) was applied. Cells were visualized using confocal microscopy (LSM980, Zeiss, Germany). The chromosomal DNA in the nucleus was stained with 4′,6‐diamidino‐2‐phenylindole (DAPI). The microtubules were detected using α‐TUBULIN antibodies (1:1000; Santa Cruz), and F‐ACTIN was stained with Alexa Fluor 488 or rhodamine‐conjugated phalloidin (Invitrogen). Flag‐tagged rCPNE7 was detected using Flag‐antibodies (1:500; Sigma–Aldrich), and TAU was detected by TAU antibodies (1:100; CUSABIO). Immunofluorescence staining of TAU, F‐ACTIN, and α‐TUBULIN was analyzed using the IMARIS cell imaging software (Bitplane) (n = 3, each group).

hDPCs [5] = assay: γ-H2AX / P21 western blot in H2O2-treated hDPCs; type: cell-based, human
Protocol: Cellular proteins (30 μg) were separated by 10% or 15% sodium dodecyl sulfate‐polyacrylamide gel electrophoresis (SDS‐PAGE) and transferred to polyvinylidene fluoride (PVDF) membranes. The PVDF membranes were blocked for 1 h with 5% nonfat dry milk in Tris‐buffered saline containing 0.1% Tween 20 (TBS‐T) and incubated overnight at 4°C with the primary antibody diluted in TBS‐T (1:5000). After washing, membranes were incubated for 1 h with the appropriate secondary antibodies. Labeled protein bands were detected under an enhanced chemiluminescence system (Amersham Biosciences/GE Healthcare). All reactions were performed in triplicate. Semi‐quantitative analyses were performed using Image J software (National Institute of Health, MD, USA) (n = 3, each group).

hDPCs [6] = tested on: hDPCs

OO [H2O2, hydrogen peroxide, reference compound]
SA-β gal positive signals (induction of senescence) (hDPCs [1]): began to deposit | DNA fragmentation (comet assay) (hDPCs [2]): fragmented DNA visualized as a cell tail | endogenous mRNA expression level of Cpne7 (hDPCs [3]): started to increase | expression of γ-H2AX (immunofluorescence) (hDPCs [4]): specifically detected in cellular nuclei | expressions of γ-H2AX and P21 (DNA damage and cell cycle arrest) (hDPCs [5]; 500 μM H2O2): upregulated | protein expression level of γ-H2AX (western blot) (hDPCs [5]; 1 mM and 2 mM H2O2): clearly detected | cytotoxicity of oxidative stress (hDPCs [6]; 1 mM and 2 mM H2O2, after 48 h): severe cytotoxicity | cell death / survival rate (WST-8) (hDPCs [6]; H2O2 50 μM to 2 mM for 24 h): cell death occurred in a concentration‐dependent manner except for 50 μM
